Experimental data: patent publication US20260242759A1, “GQ/11 Protein Peptidomimetics” (Vrije Universiteit Brussel, priority 2022, published 2026)
Non-standard residues stand in square brackets, D forms with d. Residues, ends and D or L forms follow the SMILES beside them. Cha = N[C@@H](CC1CCCCC1)C(=O)O

Target: T1, human ghrelin receptor (GHSR) (Homo sapiens, UniProt Q92847, C146S/C304S)
T1 construct: integrin α5 fragment (N); polyhistidine tag (C); made in house; host or cells: E. coli BL21(DE3)
Assay: Bimane fluorescence assay on purified ghrelin receptor in nanodiscs
Assay type: biochemical
Settings: bimane labeled GHSR, in presence of JMV1843
Summary of the method: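 E. coli-expressed human ghrelin receptor (cysmin mutant, N-terminal integrin α5 fragment, C-terminal His-tag) purified into lipid nanodiscs and labelled with monobromobimane at Cys255 (16 h, 4° C, dark). Labelled receptor (0.2 μM final) incubated 2 h at 20° C with or without JMV1843 (20 μM) and peptidomimetics at varying molar ratios, or Gαqβ1γ2 at 1:5 receptor:G protein; emission scanned 440–520 nm with excitation at 380 nm for λmax shift.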

T1 sequence (Q92847 whole entry C146S/C304S, the tested form may be a part): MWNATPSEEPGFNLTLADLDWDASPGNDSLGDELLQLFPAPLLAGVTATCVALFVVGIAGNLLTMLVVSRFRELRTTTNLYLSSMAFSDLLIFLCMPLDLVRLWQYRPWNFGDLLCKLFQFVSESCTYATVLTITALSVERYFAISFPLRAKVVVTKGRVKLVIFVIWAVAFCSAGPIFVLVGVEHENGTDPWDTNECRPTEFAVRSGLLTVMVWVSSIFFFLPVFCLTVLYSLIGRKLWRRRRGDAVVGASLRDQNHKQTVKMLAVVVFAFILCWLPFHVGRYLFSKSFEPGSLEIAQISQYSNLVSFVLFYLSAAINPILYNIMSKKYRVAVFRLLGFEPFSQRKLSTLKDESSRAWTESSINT

Question: For `CC[C@H](C)[C@H](NC(=O)[C@@H](NC(=O)[C@H](CC(=O)O)NC(=O)[C@H](CCCCN)NC(=O)[C@@H](NC(=O)[C@H](C)NC(=O)[C@H](C)NC(=O)[C@H](Cc1ccccc1)NC(=O)[C@H](CCCCN)NC(=O)[C@H](CCCCN)NC(=O)[C@H](CCCCN)NC(C)=O)C(C)C)[C@@H](C)O)C(=O)N[C@@H](CC(C)C)C(=O)N[C@@H](CCC(N)=O)C(=O)N[C@@H](CC(C)C)C(=O)N[C@@H](CC(N)=O)C(=O)N[C@@H](CC(C)C)C(=O)N[C@@H](CCCCN)C(=O)N[C@@H](CCC(=O)O)C(=O)N[C@@H](Cc1ccc(O)cc1)C(=O)N[C@@H](CC(N)=O)C(=O)N[C@@H](CC1CCCCC1)C(=O)N[C@H](C(=O)O)C(C)C` [SBL-GQ-04] (Ac-KKKFAAVKDTILQLNLKEYN[Cha]V-OH), which “conformational change in the receptor” value is on record?
Answer: The value was “not able to induce a conformational change”.
